Data: US20240116892A1, “HETEROCYCLIC AMIDE AND UREA COMPOUNDS AS JAK2 INHIBITORS” (Ajax Therapeutics, Inc., priority 2022, published 2024)

biological target: JAK2 (JH1 domain-catalytic, Y1007F, Y1008F) kinase (Homo sapiens (Human), UniProt O60674, Y1007F/Y1008F); assay: JAK2 JH1 Domain Binding Assay; conditions: qPCR readout
Experimental: JAK2 (JH1 domain-catalytic, Y1007F, Y1008F) kinase was expressed as N-terminal fusion to the DNA binding domain of NFkB in transiently transfected HEK293 cells and subsequently tagged with DNA for qPCR detection. Streptavidin-coated magnetic beads were treated with biotinylated small molecule ligands for 30 minutes at room temperature to generate affinity resins for kinase assays. The liganded beads were blocked with excess biotin and washed with blocking buffer (SeaBlock (Pierce), 1% BSA, 0.05% Tween 20, 1 mmol/L DTT) to remove unbound ligand and to reduce nonspecific phage binding. Binding reactions were assembled by combining kinases, liganded affinity beads, and test compounds in 1× binding buffer (1× PBS, 0.05% Tween 20, 0.1% BSA, 1 mmol/L DTT). Test compound was prepared as 111× stocks in 100% DMSO and directly diluted into the assay wells. All reactions were performed in polypropylene 384-well plates in a final volume of 0.02 mL. The assay plates were incubated at room temperature with shaking for 1 hour and the affinity beads were washed with wash buffer (1× PBS, 0.05% Tween 20). The beads were then re-suspended in elution buffer (1× PBS, 0.05% Tween 20, 0.5 μmol/L non-biotinylated affinity ligand) and incubated at room temperature with shaking for 30 minutes. The kinase concentration in the eluate was measured by qPCR.

Sequence of JAK2 (JH1 domain-catalytic, Y1007F, Y1008F) kinase (O60674 849-1124 Y1007F/Y1008F): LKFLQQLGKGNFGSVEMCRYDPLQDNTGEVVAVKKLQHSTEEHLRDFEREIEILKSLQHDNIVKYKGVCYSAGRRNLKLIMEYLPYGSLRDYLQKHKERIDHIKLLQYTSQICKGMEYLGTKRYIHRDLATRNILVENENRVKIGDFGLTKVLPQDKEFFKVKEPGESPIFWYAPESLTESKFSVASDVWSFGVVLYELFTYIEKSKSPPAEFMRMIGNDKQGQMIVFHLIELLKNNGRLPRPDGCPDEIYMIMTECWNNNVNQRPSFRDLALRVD

Kd, 10 to 50 nM:
CN(C(=O)Nc1cc(C(F)(F)F)cn(C)c1=O)[C@H]1CCN(c2cnc3[nH]n(C)c(=O)c3c2)CC1F (stereo in doubt) [Example I-90-a, 1-((3R,4S)-3-fluoro-1-(2-methyl-3-oxo-2,3-dihydro-1H-pyrazolo[3,4-b]pyridin-5-yl)piperidin-4-yl)-1-methyl-3-(1-methyl-2-oxo-5-(trifluoromethyl)-1,2-dihydropyridin-3-yl)urea]
Cc1cc(NC(=O)N(C)C2CCN(c3cnccn3)CC2)cc(C(F)(F)F)c1 [Example I-8, 1-methyl-3-(3-methyl-5-(trifluoromethyl)phenyl)-1-(1-(pyrazin-2-yl)piperidin-4-yl)urea]
CN(C(=O)Nc1cc(C(F)(F)F)cn(C)c1=O)C1CCN(c2cnccn2)CC1 [Example I-10, 1-methyl-3-(1-methyl-2-oxo-5-(trifluoromethyl)-1,2-dihydropyridin-3-yl)-1-(1-(pyrazin-2-yl)piperidin-4-yl)urea]
CC(=O)Nc1cnc(N2CCC(N(C)C(=O)Nc3cc(CN4CCN(C)CC4)cc(C(F)(F)F)c3)CC2)cn1 [Example I-19, N-(5-(4-(1-methyl-3-(3-((4-methylpiperazin-1-yl)methyl)-5-(trifluoromethyl)phenyl)ureido)piperidin-1-yl)pyrazin-2-yl)acetamide]

Kd, 1000 to 5000 nM:
Cc1cc(NC(=O)CC2CCN(c3cnccn3)CC2)cc(C(F)(F)F)c1 [Example I-1, N-(3-methyl-5-(trifluoromethyl)phenyl)-2-(1-(pyrazin-2-yl)piperidin-4-yl)acetamide]
CC(=O)Nc1cnc(N2CCC(CC(=O)Nc3cc(CN4CCN(C)CC4)cc(C(F)(F)F)c3)CC2)cn1 [Example I-7, 2-(1-(5-acetamidopyrazin-2-yl)piperidin-4-yl)-N-(3-((4-methylpiperazin-1-yl)methyl)-5-(trifluoromethyl)phenyl)acetamide]
CN(C(=O)Nc1cc(N2CCC(O)CC2)cc(C(F)(F)F)c1)C1CCN(c2cnccn2)CC1 [Example I-9, 3-(3-(4-hydroxypiperidin-1-yl)-5-(trifluoromethyl)phenyl)-1-methyl-1-(1-(pyrazin-2-yl)piperidin-4-yl)urea]

Kd, 50 to 1000 nM:
CC(=O)Nc1cnc(N2CCC(CC(=O)Nc3cc(C)cc(C(F)(F)F)c3)CC2)cn1 [Example I-2, 2-(1-(5-acetamidopyrazin-2-yl)piperidin-4-yl)-N-(3-methyl-5-(trifluoromethyl)phenyl)acetamide]
CC(=O)Nc1cnc(N2CCC(CC(=O)Nc3cc(C(F)(F)F)cn(C)c3=O)CC2)cn1 [Example I-3, 2-(1-(5-acetamidopyrazin-2-yl)piperidin-4-yl)-N-(1-methyl-2-oxo-5-(trifluoromethyl)-1,2-dihydropyridin-3-yl)acetamide]
Cc1cc(NC(=O)C2(C3CCN(c4cnccn4)CC3)CC2)cc(C(F)(F)F)c1 [Example I-4, N-(3-methyl-5-(trifluoromethyl)phenyl)-1-(1-(pyrazin-2-yl)piperidin-4-yl)cyclopropane-1-carboxamide]
Cn1cc(C(F)(F)F)cc(NC(=O)C2(C3CCN(c4cnccn4)CC3)CC2)c1=O [Example I-5, N-(1-methyl-2-oxo-5-(trifluoromethyl)-1,2-dihydropyridin-3-yl)-1-(1-(pyrazin-2-yl)piperidin-4-yl)cyclopropane-1-carboxamide]
CC(=O)Nc1cnc(N2CCC(CC(=O)Nc3cccc(C(F)(F)F)c3)CC2)cn1 [Example I-6, 2-(1-(5-acetamidopyrazin-2-yl)piperidin-4-yl)-N-(3-(trifluoromethyl)phenyl)acetamide]

Kd, < 10 nM:
CN(C(=O)Nc1cc(C2CC2)cn([C@H]2CCCOC2)c1=O)C1CCN(c2cnc3[nH]ncc3c2)CC1 (single isomer, unassigned) [Example I-183-a, (S)- or (R)-1-(1-(1H-pyrazolo[3,4-b]pyridin-5-yl)piperidin-4-yl)-3-(5-cyclopropyl-2-oxo-1-(tetrahydro-2H-pyran-3-yl)-1,2-dihydropyridin-3-yl)-1-methylurea]
CN(C(=O)Nc1cc(C(F)(F)F)cn(C)c1=O)[C@H]1CCN(c2cnc3[nH]ncc3c2)C[C@@H]1F (stereo in doubt) [Example I-61-a, 1-((3S,4S)-3-fluoro-1-(1H-pyrazolo[3,4-b]pyridin-5-yl)piperidin-4-yl)-1-methyl-3-(1-methyl-2-oxo-5-(trifluoromethyl)-1,2-dihydropyridin-3-yl)urea]
CN(C(=O)Nc1cc(C(F)(F)F)cn(C)c1=O)[C@H]1CCN(c2cnc3[nH]ncc3c2)C[C@H]1F (stereo in doubt) [Example I-62-a, 1-((3R,4S)-3-fluoro-1-(1H-pyrazolo[3,4-b]pyridin-5-yl)piperidin-4-yl)-1-methyl-3-(1-methyl-2-oxo-5-(trifluoromethyl)-1,2-dihydropyridin-3-yl)urea]
Cc1cc(NC(=O)N(C)C2CCN(c3cnc4[nH]ccc4n3)CC2)cc(C(F)(F)F)c1 [Example I-11, 1-(1-(5H-pyrrolo[2,3-b]pyrazin-2-yl)piperidin-4-yl)-1-methyl-3-(3-methyl-5-(trifluoromethyl)phenyl)urea]
CC(=O)Nc1ccc(N2CCC(N(C)C(=O)Nc3cc(C)cc(C(F)(F)F)c3)CC2)cn1 [Example I-12, N-(5-(4-(1-methyl-3-(3-methyl-5-(trifluoromethyl)phenyl)ureido)piperidin-1-yl)pyridin-2-yl)acetamide]
CC(=O)Nc1cnc(N2CCC(N(C)C(=O)Nc3cc(C)cc(C(F)(F)F)c3)CC2)cn1 [Example I-13, N-(5-(4-(1-methyl-3-(3-methyl-5-(trifluoromethyl)phenyl)ureido)piperidin-1-yl)pyrazin-2-yl)acetamide]
CC(=O)Nc1cnc(N2CCC(N(C)C(=O)Nc3cc(C(F)(F)F)cn(C)c3=O)CC2)cn1 [Example I-14, N-(5-(4-(1-methyl-3-(1-methyl-2-oxo-5-(trifluoromethyl)-1,2-dihydropyridin-3-yl)ureido)piperidin-1-yl)pyrazin-2-yl)acetamide]
CN(C(=O)Nc1cc(C(F)(F)F)cn(C)c1=O)C1CCN(c2cnc3[nH]ccc3n2)CC1 [Example I-15, 1-(1-(5H-pyrrolo[2,3-b]pyrazin-2-yl)piperidin-4-yl)-1-methyl-3-(1-methyl-2-oxo-5-(trifluoromethyl)-1,2-dihydropyridin-3-yl)urea]
CC(=O)Nc1cnc(N2CCC(N(C)C(=O)Nc3cccc(C(F)(F)F)c3)CC2)cn1 [Example I-16, N-(5-(4-(1-methyl-3-(3-(trifluoromethyl)phenyl)ureido)piperidin-1-yl)pyrazin-2-yl)acetamide]
Cc1cc(NC(=O)N(C)C2CCN(c3cnc4[nH]ncc4c3)CC2)cc(C(F)(F)F)c1 [Example I-17, 1-(1-(1H-pyrazolo[3,4-b]pyridin-5-yl)piperidin-4-yl)-1-methyl-3-(3-methyl-5-(trifluoromethyl)phenyl)urea]
CN(C(=O)Nc1cc(C(F)(F)F)cn(C)c1=O)C1CCN(c2cnc(NC(=O)C3CC3)cn2)CC1 [Example I-18, N-(5-(4-(1-methyl-3-(1-methyl-2-oxo-5-(trifluoromethyl)-1,2-dihydropyridin-3-yl)ureido)piperidin-1-yl)pyrazin-2-yl)cyclopropanecarboxamide]
CC(=O)Nc1ccc(N2CCC(N(C)C(=O)Nc3cc(C(F)(F)F)cn(C)c3=O)CC2)cn1 [Example I-20, N-(5-(4-(1-methyl-3-(1-methyl-2-oxo-5-(trifluoromethyl)-1,2-dihydropyridin-3-yl)ureido)piperidin-1-yl)pyridin-2-yl)acetamide]
CN(C(=O)Nc1cc(C(F)(F)F)cn(C)c1=O)C1CCN(c2cnc3[nH]ccc3c2)CC1 [Example I-21, 1-(1-(1H-pyrrolo[2,3-b]pyridin-5-yl)piperidin-4-yl)-1-methyl-3-(1-methyl-2-oxo-5-(trifluoromethyl)-1,2-dihydropyridin-3-yl)urea]
CC(=O)Nc1cnc(N2CCC(N(C)C(=O)Nc3cc(C(F)(F)F)cc(C)n3)CC2)cn1 [Example I-23, N-(5-(4-(1-methyl-3-(6-methyl-4-(trifluoromethyl)pyridin-2-yl)ureido)piperidin-1-yl)pyrazin-2-yl)acetamide]
CN(C(=O)Nc1cc(C(F)(F)F)cn(C)c1=O)C1CCN(c2ccc(NC(=O)C3CC3)nc2)CC1 [Example I-24, N-(5-(4-(1-methyl-3-(1-methyl-2-oxo-5-(trifluoromethyl)-1,2-dihydropyridin-3-yl)ureido)piperidin-1-yl)pyridin-2-yl)cyclopropanecarboxamide]
CN(C(=O)Nc1cc(C(F)(F)F)cn(C)c1=O)C1CCN(c2cnc3[nH]c(C4CC4)cc3n2)CC1 [Example I-25, 1-(1-(6-cyclopropyl-5H-pyrrolo[2,3-b]pyrazin-2-yl)piperidin-4-yl)-1-methyl-3-(1-methyl-2-oxo-5-(trifluoromethyl)-1,2-dihydropyridin-3-yl)urea]
CN(C(=O)Nc1cc(C(F)(F)F)cn(C)c1=O)C1CCN(c2cnc3[nH]ncc3c2)CC1 [Example I-26, 1-(1-(1H-pyrazolo[3,4-b]pyridin-5-yl)piperidin-4-yl)-1-methyl-3-(1-methyl-2-oxo-5-(trifluoromethyl)-1,2-dihydropyridin-3-yl)urea]
